Consider 122 molecules from a melting point compilation (Tetko et al.).

The molecule `Cn1c(S)nnc1Cc1cccs1` yielded a melting point of 157 to 161 °C.

`CC1CN(c2ccc(N)cc2C(F)(F)F)CC(C)O1` (configuration not stated) showed a melting point of 122 to 124 °C.

Take `O=C(O)c1nccnc1C(=O)NCc1ccc(F)cc1`: the melting point was in the range of 170 to 172 °C.

`Cc1oc(-c2ccco2)nc1CCl` registered a melting point of 58 to 60 °C.

For `CCN(CC)c1ccc(S(=O)(=O)N2CCOCC2)cc1NC(=O)CCl`, the melting point was in the range of 99 to 101 °C.

Consider `Cc1ccc(C2NCC(CCl)O2)cc1` (configuration not stated), for which the melting point was in the range of 60 to 64 °C.

In turn, `CC(C)(C)OC(=O)N1CC(=O)NC2CNCCC21` (configuration not stated) registered a melting point of 144 to 146 °C.

`O=C(O)c1ccc2c(c1)C(=O)N(c1ccc(F)cc1)C2=O` came in with a melting point of 295 to 297 °C.

Molecule `O=C1C(Br)CCCN1c1ccccc1` (configuration not stated) gave a melting point of 80 to 82 °C.

Regarding `O=C(O)C1(O)CCSCC1`, the melting point is 118 to 120 °C.

As for `BrCCc1ccc2ccccc2c1`, the melting point was 62 to 64 °C.

The molecule `Cc1cc(=O)[nH]c(C)c1C(=O)O` showed a melting point of 274 to 276 °C.

The molecule `CC=Cc1ccc(OCC(=O)O)c(OC)c1` came in with a melting point of 117 to 119 °C.

`COc1cc(C(=O)O)ccc1OCC(=O)NC(C)C` registered a melting point of 193 to 195 °C.

In turn, `O=C(O)C1CC(=O)N(c2cccc3ccccc23)C1` (configuration not stated) registered a melting point of 207 to 209 °C.

On to `Cn1cc(C(=O)O)c(-c2ccc(F)cc2F)n1`, for which the melting point lay in the range of 231 to 233 °C.

`O=C1NCCNC1c1cccs1` (configuration not stated) returned a melting point of 111 to 113 °C.

In turn, `Cc1cc(C)c(N=C=S)c(Cl)c1` yielded a melting point of 55 to 57 °C.

`NCC(O)c1ccc(Cl)c(F)c1` (configuration not stated) displayed a melting point of 54 to 56 °C.

As for `CCCn1c(=O)[nH]c(=O)c2cc(C(=O)O)cnc21`, the melting point lay in the range of 235 to 237 °C.

Molecule `CC(C)(C)OC(=O)N1CCN(c2nnc(N)[nH]2)CC1` came in with a melting point of 178 to 180 °C.

Turning to `O=C(O)CN1Cc2ccccc2C1`, the melting point lay within 209 to 211 °C.

Consider `Cc1nn(Cc2ccc(Cl)cc2)c(C)c1C=O`, for which the melting point lay in the range of 71 to 73 °C.

In turn, `CSc1ccc(C(C)=O)cc1F` had a melting point of 71 to 73 °C.

In turn, `O=C(O)Cc1csc(NC(=O)c2ccccc2I)n1` displayed a melting point of 167 to 169 °C.

In turn, `NC(=O)c1ccc(N2CCSCC2)c(N)c1` had a melting point of 196 to 198 °C.

`O=C1C=CC(=O)N1c1cnccn1` registered a melting point of 116 to 118 °C.

In the case of `COC(=O)c1ccc(C=CC(=O)O)cc1`, the melting point fell in the range of 236 to 238 °C.

`Cc1cc(C2CCCNC2)n[nH]1` (configuration not stated) displayed a melting point of 104 to 106 °C.

`O=[N+]([O-])c1cnccc1NC1CC1` showed a melting point of 105 to 107 °C.

Consider `O=Cc1sc2ccccc2c1Cl`, for which the melting point was 104 to 106 °C.

`CC(=O)c1cc(C(=O)C(Cl)(Cl)Cl)n(C)c1` registered a melting point of 133 to 135 °C.

With `NCC(O)CS(=O)(=O)c1cccs1` (configuration not stated), the melting point was in the range of 111 to 113 °C.

As to `O=C(O)C(Oc1ccc(Br)cc1Br)c1ccccc1` (configuration not stated), the melting point was in the range of 129 to 131 °C.

`Oc1ccc(-c2nc3cc(Cl)ccc3s2)cc1` showed a melting point of 263 to 265 °C.

Turning to `NC(=O)Cn1c(S)nnc1-c1cccs1`, the melting point fell in the range of 319 to 321 °C.

Consider `Clc1cc(OCc2ccccc2)ccn1`, for which the melting point is 93 to 95 °C.

Molecule `CS(=O)(=O)Nc1ccccc1N` yielded a melting point of 102 to 104 °C.

`O=Cc1ncc(-c2cccc(Br)c2)[nH]1`: the melting point fell in the range of 209 to 211 °C.

As for `NS(=O)(=O)c1cccc(NC(=O)Oc2ccccc2)c1`, the melting point was 193 to 195 °C.

As for `CC(=O)Nc1cccc(C(C)O)c1` (configuration not stated), the melting point lay within 103 to 105 °C.

`O=C1c2ccccc2C(=O)N1CCCc1nn[nH]n1` returned a melting point of 79 to 81 °C.

`COc1ccc(CCC2CCCCN2)cc1OC` (configuration not stated) gave a melting point of 39 to 41 °C.

The molecule `O=S(=O)(Cl)c1cccc2ncccc12` showed a melting point of 121 to 123 °C.

`CC(Oc1cccnc1N)c1ccccc1` (configuration not stated) showed a melting point of 83 to 85 °C.

`OCC(c1ccc(Cl)cc1)N1CCNCC1` (configuration not stated) yielded a melting point of 116 to 118 °C.

`O=[N+]([O-])c1ccc(-c2cn3ccsc3n2)cc1` gave a melting point of 284 to 286 °C.

As to `CN(C)c1ccc(C2NCC(CCl)O2)cc1` (configuration not stated), the melting point is 104 to 106 °C.

`Cc1cc(Br)cc2c1NC(=O)C2`: the melting point was in the range of 224 to 226 °C.

In turn, `COc1ccc(C)cc1-c1csc(N)n1` returned a melting point of 205 to 207 °C.

`CC(C)NS(=O)(=O)c1ccc(NN)nc1`: the melting point is 141 to 143 °C.

Molecule `Nc1cccc(S(=O)(=O)Nc2ccccc2C(=O)O)c1` came in with a melting point of 198 to 200 °C.

Molecule `CC1(NC(=O)c2ccnc(F)c2)CCCC1` came in with a melting point of 78 to 80 °C.

Molecule `O=C(Nc1ccc(Br)cn1)C1CCNCC1` yielded a melting point of 144 to 146 °C.

In turn, `OC(c1ccccc1)c1cccc(Cl)c1Cl` (configuration not stated) showed a melting point of 79 to 81 °C.

`O=c1[nH]c(Cl)cc2ccccc12`: the melting point was in the range of 214 to 216 °C.

With `O=C(c1ccc(Cl)c(Cl)c1)C1CC1`, the melting point is 29 to 31 °C.

Regarding `COc1ccc(-c2cc(C(=O)O)nn2-c2ccccc2)cc1`, the melting point lay within 198 to 200 °C.

In turn, `O=C(Nc1nccs1)OCC(F)(F)F` showed a melting point of 167 to 169 °C.

`O=C(O)c1cc(S(=O)(=O)NC2CC2)ccc1Br`: the melting point was in the range of 221 to 223 °C.

For `COCCc1ccc(OCCCC(=O)O)cc1`, the melting point was in the range of 47 to 49 °C.

The molecule `Nc1ccc(C(=O)NCc2ccccc2)cc1` yielded a melting point of 113 to 115 °C.

Consider `N#CCc1cccc2cccnc12`, for which the melting point was 84 to 86 °C.

`O=C1CCc2cc(Cl)ccc2N1` returned a melting point of 162 to 164 °C.

In turn, `O=C(O)C(O)C1CCOCC1` (configuration not stated) registered a melting point of 79 to 81 °C.

Regarding `N#CCC(=O)Nc1ncccn1`, the melting point lay in the range of 159 to 161 °C.

On to `CC(=O)NC(C)c1ccc(-c2csc(N)n2)cc1` (configuration not stated), for which the melting point was 225 to 227 °C.

Take `CCC(C)NC(=O)c1cccc(CN)c1` (configuration not stated): the melting point is 95 to 97 °C.

Molecule `COc1ccc(CNS(=O)(=O)CC#N)cc1OC` showed a melting point of 126 to 128 °C.

The molecule `COCCNC(=O)Nc1ccc(N)cc1` returned a melting point of 135 to 137 °C.

Consider `CCc1cc(Cl)n2c(nc3ccccc32)c1C#N`, for which the melting point lay in the range of 175 to 177 °C.

Turning to `O=C(CCCl)Nc1ccc(Cl)cc1`, the melting point is 124 to 126 °C.

The molecule `Cc1n[nH]c2ncc([N+](=O)[O-])cc12` showed a melting point of 189 to 191 °C.

In the case of `Ic1ccc(OCc2ccncc2)cc1`, the melting point is 152 to 154 °C.

Regarding `Nc1ccc(Oc2ccnc3cc(Cl)ccc23)c(F)c1`, the melting point fell in the range of 154 to 156 °C.

For the molecule `CC(=O)c1c(C#N)c2n(c1C)CCC2`, the melting point was in the range of 132 to 134 °C.

In the case of `Cc1ccsc1C(N)=S`, the melting point was in the range of 117 to 119 °C.

On to `CC(=O)CCc1ccc(O)c(F)c1`, for which the melting point lay within 88 to 90 °C.

Consider `Cc1c(S(=O)(=O)Cl)sc2cc(F)ccc12`, for which the melting point is 138 to 140 °C.

For the molecule `CCOc1ccc(S(N)(=O)=O)c2ccccc12`, the melting point was 168 to 170 °C.

Molecule `CC1CCCCC1NC(=O)CCl` (configuration not stated) displayed a melting point of 100 to 102 °C.

As for `CC(C)c1nc(S(=O)(=O)Cl)c[nH]1`, the melting point lay in the range of 162 to 164 °C.

Molecule `O=C(O)Cc1cccc(OCc2ccccn2)c1` returned a melting point of 123 to 125 °C.

Molecule `Clc1ccc2c(Cl)ncnc2c1` returned a melting point of 136 to 138 °C.

As to `CCn1nc(N)cc1C1CC1`, the melting point fell in the range of 111 to 113 °C.

The molecule `Brc1nn2cc(-c3cccnc3)nc2s1` came in with a melting point of 230 to 232 °C.

Consider `CCOc1cc(C#N)cc(Cl)c1O`, for which the melting point lay in the range of 126 to 128 °C.

In turn, `CCn1ccc(=O)nc1S` gave a melting point of 242 to 244 °C.

As for `O=C(CCl)Nc1cc(C(F)(F)F)ccc1N1CCCC1`, the melting point was 271 to 272 °C.

Take `CCc1cc(C#N)c(N)s1`: the melting point lay within 61 to 63 °C.

`NC(=O)CCc1ccccc1` yielded a melting point of 100 to 102 °C.

As for `O=C(Nc1sc2c(c1C(=O)O)CCCC2)c1cccnc1`, the melting point was 239 to 241 °C.

Consider `O=C1CCOc2cc3c(cc21)OCO3`, for which the melting point lay in the range of 96 to 98 °C.

Molecule `O=C(O)c1ccc2c(c1)C(=O)N(C1CC1)C2=O` yielded a melting point of 220 to 222 °C.

Turning to `CS(=O)(=O)Cc1ccc(C(=O)O)cc1`, the melting point lay within 253 to 255 °C.

The molecule `COc1ccccc1CNCCO` came in with a melting point of 65 to 67 °C.

Take `COc1ccc(C=O)cc1OCCCC#N`: the melting point was in the range of 72 to 74 °C.

As for `Nc1cc(-c2cccc(F)c2)no1`, the melting point is 103 to 105 °C.

Take `Cc1cc(C)nc(SCC(=O)O)n1`: the melting point is 130 to 132 °C.

Molecule `CCNS(=O)(=O)c1cccc(C(=O)O)c1` showed a melting point of 199 to 201 °C.

As to `Nc1nnc(SCC(=O)O)s1`, the melting point fell in the range of 196 to 198 °C.

In the case of `N#Cc1cc2c([nH]c1=O)CCN(Cc1ccccc1)C2`, the melting point was in the range of 218 to 220 °C.

In turn, `NC(CCN1CCOCC1)=NO` came in with a melting point of 159 to 161 °C.

`Cn1cnnc1-c1ccnc(N)c1` showed a melting point of 204 to 206 °C.

Regarding `NC(=NO)C(c1ccccc1)c1ccccc1`, the melting point lay within 124 to 126 °C.

In turn, `Nc1nc2c(F)c(Cl)ccc2s1` returned a melting point of 80 to 82 °C.

`COC(=O)c1cc([N+](=O)[O-])ccc1N`: the melting point is 163 to 165 °C.

As for `CC(=O)Nc1sc(C)c(C)c1C(=O)O`, the melting point lay within 217 to 219 °C.

`Cc1nnc(-c2ccc(N)cc2)o1`: the melting point is 195 to 197 °C.

As for `O=c1oc2ccccc2c(O)c1Cc1c(O)c2ccccc2oc1=O`, the melting point lay within 290 to 292 °C.

In turn, `CC(C)C(C(=O)O)c1ccc(F)cc1` (configuration not stated) showed a melting point of 59 to 61 °C.

Take `N#Cc1ccccc1Oc1ccc(CCl)cc1`: the melting point lay within 54 to 56 °C.

`Cc1cccc(NC(=S)NN)c1C` came in with a melting point of 170 to 172 °C.

`CCc1cccc(N2CC(C(=O)O)CC2=O)c1` (configuration not stated) gave a melting point of 120 to 122 °C.

`Cc1oncc1C(=O)NCC(=O)O`: the melting point fell in the range of 144 to 146 °C.

For the molecule `COc1cc(C=O)c([N+](=O)[O-])cc1O`, the melting point was 207 to 209 °C.

`COC(=O)c1ccn2c(I)cnc2c1` gave a melting point of 209 to 211 °C.

The molecule `Cc1cn2cccnc2n1` registered a melting point of 97 to 99 °C.

`O=C(O)/C=C/c1ccc(S(=O)(=O)NC2CC2)cc1` registered a melting point of 263 to 265 °C.

In turn, `CCOC(=O)c1ccc(N2CCNCC2)nc1` came in with a melting point of 49 to 51 °C.

In the case of `COCCNS(=O)(=O)c1ccc(Cl)c(C(=O)O)c1`, the melting point was in the range of 142 to 144 °C.

Take `CCOC(=O)c1c(N)sc2c1CCN(C(=O)OCC)C2`: the melting point lay in the range of 145 to 147 °C.

In general, melting point refers to the temperature, or range, at which the solid turns liquid.
